Measured values taken from article PMC7949049 (The Journal of Biological Chemistry, 2020).
Entries after “also recorded” stand apart in the source; their conditions may differ. Values belong to the molecule of their own block, whether it stands above or below them. Positions of bridges follow the written chain, without caps; N, C: chain ends. Non-standard residues stand in square brackets, D forms with d. Residues, ends and D or L forms follow the SMILES beside them. No end group written: not given here. *: point of attachment. 5FAM = O=C1OC2(c3ccc(O)cc3Oc3cc(O)ccc32)c2ccc(C(=O)*)cc21; S5 = C=CCCC[C@](C)(N)C(=O)O; PEG2 = NCCOCCOCCC(=O)O

How the values were obtained:
RalA = test: Direct-binding SPA of RalA to His-tagged RLIP76 RBD variants; conditions: 80 nM His-tagged RBD, n = 2; for apparent Kd RalA, direct SPA (Fig. S1): [3H]GTP-labelled RalA titrated, experiment of Fig. S1
Protocol: Ral proteins were labeled with [^3H]GTP for use in SPAs as follows. [^3H]GTP (0.15 mCi, PerkinElmer Life Sciences) was dried by centrifugal evaporation. Ral (0.7 mg) and 0.3 M (NH4)2SO4 were added in 140 μl of buffer (10 mM Tris-HCl, 150 mM NaCl, 1 mM DTT, pH 7.5). The mixture was incubated at 37 °C for 3 h, and unbound nucleotide was removed with Sephadex G25 spin columns (GE Healthcare).
[^3H]GTP·Ral proteins were titrated at the concentrations indicated in the results. […] The equilibrium binding constants (Kd) for the effector–Ral interactions were determined by monitoring the SPA signal in the presence of varying concentrations of [^3H]GTP·Ral and fitted using nonlinear regression with the computer program Grafit.

RalA·GDP = biological target: T1, RalA·GDP (Homo sapiens, UniProt P11233, Q72L); test: Direct-binding fluorescence polarization, RalA·GDP; conditions: 20 nM FAM-labeled peptide, n = 3, NB = no binding; for Kd: read-out: Kd RalA·GDP, FP
T1 construct: RalA (pMAT10, residues 1–184, Q72L); His6-MBP (cleaved yes); made in house
T1 sequence (P11233 1-184 Q72L): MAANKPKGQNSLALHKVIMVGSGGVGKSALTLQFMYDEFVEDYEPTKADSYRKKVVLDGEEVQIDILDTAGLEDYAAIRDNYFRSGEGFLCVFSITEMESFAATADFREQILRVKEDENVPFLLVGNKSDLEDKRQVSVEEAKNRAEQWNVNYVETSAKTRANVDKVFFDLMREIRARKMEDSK
Protocol: (§1) FP experiments were performed on a BMG Labtech Pherastar fluorimeter at 298 K with excitation at 485 nm and emission at 520 nm as described previously ([34]), using 20 nM FAM-labeled peptide. Plates were read after 30 min incubation at room temperature. Data were fitted to a single-site binding model using nonlinear regression analysis in GraphPad prism 8.4 to obtain Kd values and their standard errors.

RhoA·GMPPNP = biological target: T2, RhoA·GMPPNP (Homo sapiens, UniProt P61586, F25N/Q63L); test: Direct-binding fluorescence polarization, RhoA; conditions: 20 nM FAM-labeled peptide, n = 3, NB = no binding, GTPase up to 100 μM; for Kd: read-out: Kd RhoA·GMPPNP, FP
T2 construct: RhoA (pGEX-2T, 1–186, F25N/Q63L); GST (cleaved yes); made in house
T2 sequence (P61586 1-186 F25N/Q63L): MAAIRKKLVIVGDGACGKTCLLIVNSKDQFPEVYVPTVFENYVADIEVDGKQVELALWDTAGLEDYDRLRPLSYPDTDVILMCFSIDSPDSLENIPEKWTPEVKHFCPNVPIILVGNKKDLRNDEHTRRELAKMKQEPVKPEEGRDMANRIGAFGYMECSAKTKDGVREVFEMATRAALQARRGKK
Protocol: as §1

Rac1·GMPPNP = biological target: T3, Rac1·GMPPNP (Homo sapiens, UniProt P63000, Q61L); test: Direct-binding fluorescence polarization, Rac1; conditions: 20 nM FAM-labeled peptide, n = 3, NB = no binding, GTPase up to 100 μM; for Kd: read-out: Kd Rac1·GMPPNP, FP
T3 construct: Rac1 (pGEX-2T, 1–185, Q61L); GST (cleaved yes); made in house
Protocol: as §1

[1] = biological target: T4, RalA (residues 1–184, Q72L) (UniProt P11233 1-184, Q72L); test: scintillation proximity assay (competition); His-tagged wild-type RLIP76 RBD immobilised on SPA beads, fixed [3H]GTP·RalA (100 nM) or [3H]GTP·RalB (250 nM), competitor RBD or peptide titrated; pure competition model, apparent Kd (Ki); conditions: both partners purified
T4 construct: RalA small GTPase, residues 1-184, constitutively active Q72L; Loaded with [3H]GTP for SPA, with GMPPNP or GDP for fluorescence polarisation; also called RalA·GTP; [3H]-GTP RalA; source: expressed from pMAT10 as His6-MBP fusion, cleaved from its tag as described previously
T4 sequence (looked up): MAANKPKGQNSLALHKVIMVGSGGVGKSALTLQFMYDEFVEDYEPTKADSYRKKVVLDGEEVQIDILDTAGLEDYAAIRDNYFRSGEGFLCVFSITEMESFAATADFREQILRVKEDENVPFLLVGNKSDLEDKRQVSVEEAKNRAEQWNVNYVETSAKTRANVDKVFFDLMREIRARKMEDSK

[2] = biological target: T5, RalB (residues 1–185, Q72L) (UniProt P11234 1-185, Q72L); test: as above; conditions: both partners purified
T5 construct: Loaded with [3H]GTP for SPA, with GMPPNP for ITC, FP and crystallisation; also called RalB·GTP; source: expressed from pMAT10 as His6-MBP fusion, cleaved from its tag as described previously
T5 sequence (looked up): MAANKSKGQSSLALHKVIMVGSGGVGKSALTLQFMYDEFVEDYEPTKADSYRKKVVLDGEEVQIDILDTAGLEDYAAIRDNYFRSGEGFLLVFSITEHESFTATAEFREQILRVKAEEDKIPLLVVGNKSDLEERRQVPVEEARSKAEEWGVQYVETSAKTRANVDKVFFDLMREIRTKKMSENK

[3] = biological target: T4, RalA (residues 1–184, Q72L); test: scintillation proximity assay (competition); GST-tagged Sec5 RBD immobilised on SPA beads, fixed [3H]-GTP RalA, peptides or RLIP76 RBD titrated; pure competition model, apparent Kd (Ki); conditions: both partners purified
[4] = biological target: T4, RalA (residues 1–184, Q72L); test: scintillation proximity assay (competition); His-tagged wild-type RLIP76 RBD immobilised on SPA beads, fixed [3H]GTP·RalA (100 nM) or [3H]GTP·RalB (250 nM), competitor RBD or peptide titrated; pure competition model, apparent Kd (Ki); conditions: both partners purified; remark: listed apart in the source
[5] = biological target: T6, RalA (residues 1-184, Q72L) (UniProt P11233 1-184, Q72L); test: fluorescence polarisation; direct binding of 20 nM FAM-labelled peptide to varying concentrations of small GTPase; 298 K; read after 30 min at room temperature; single-site binding model; n >= 2; conditions: both partners purified
T6 construct: RalA small GTPase, residues 1-184, constitutively active Q72L; Loaded with [3H]GTP for the SPAs; also called [3H]GTP-labelled RalA; source: expressed from pMAT10 as His6-MBP fusion, prepared and cleaved from its tags as described previously
T6 sequence (looked up): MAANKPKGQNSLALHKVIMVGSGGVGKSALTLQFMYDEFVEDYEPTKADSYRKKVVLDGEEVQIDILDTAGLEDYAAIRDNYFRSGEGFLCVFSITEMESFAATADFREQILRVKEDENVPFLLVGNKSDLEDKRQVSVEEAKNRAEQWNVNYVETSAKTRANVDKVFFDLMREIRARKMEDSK

[6] = biological target: T7, RalB (residues 1-185, Q72L) (UniProt P11234 1-185, Q72L); test: as above; conditions: both partners purified
T7 construct: source: expressed from pMAT10 as His6-MBP fusion, prepared and cleaved from its tags as described previously
T7 sequence (looked up): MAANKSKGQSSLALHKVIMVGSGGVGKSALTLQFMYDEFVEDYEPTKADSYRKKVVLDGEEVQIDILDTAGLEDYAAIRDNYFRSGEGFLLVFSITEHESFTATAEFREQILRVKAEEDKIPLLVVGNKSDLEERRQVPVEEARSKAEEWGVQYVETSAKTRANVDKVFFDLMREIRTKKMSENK

- apparent Kd RalA, direct SPA (Fig. S1) (RalA; listed as E426L/E427T/Q433T/R434L/T437R): did not bind
Molecule: LTTLR mutant: His-tagged RLIP76 RBD consensus sequence lacking the K440P substitution (ETQAGIKEEIRRQEFLLNSLHRDLQGGIKDLSKLTRLWEVTLILRALKRKLREA; also: His-tagged, tag position not given here)
- apparent Kd RalA, direct SPA (Fig. S1) (RalA): no fit could be obtained as binding was too weak

Molecule: ETQAGIKEEIRRQEFLLNSLHRDLQGGIKDLSKWDRAWEVSQILSALRRKLREA [WDASQSR]
- apparent Kd RalA, direct SPA (Fig. S2) (RalA; [3H]GTP-labeled RalA titrated, experiment of Fig. S2): no fit could be obtained as binding was too weak; also recorded: did not bind

- Kd RalA·GDP, FP (RalA·GDP): binding was too weak
- Kd (RalA·GDP): > 100 µM
- Kd RhoA·GMPPNP, FP (RhoA·GMPPNP): binding was too weak
- Kd (RhoA·GMPPNP): > 100 µM
- Kd Rac1·GMPPNP, FP (Rac1·GMPPNP): binding was too weak
- Kd (Rac1·GMPPNP): > 100 µM
Molecule: CC[C@H](C)[C@H](NC(=O)[C@H](CCCNC(=N)N)NC(=O)[C@H](CC(C)C)NC(=O)[C@H](CCC(=O)O)NC(=O)[C@H](CCC(=O)O)NC(=O)[C@H](Cc1c[nH]c2ccccc12)NC(=O)[C@H](CC(C)C)NC(=O)[C@]1(C)CCCC=CCCC[C@](C)(NC(=O)[C@H](CC(C)C)NC(=O)CCOCCOCCNC(=O)c2ccc3c(c2)C(=O)OC32c3ccc(O)cc3Oc3cc(O)ccc32)C(=O)N[C@@H](CCCCN)C(=O)N[C@@H](CCC(=O)O)C(=O)N[C@@H](Cc2c[nH]cn2)C(=O)N1)C(=O)N[C@@H](CCCCN)C(=O)N[C@H](C(=O)N[C@@H](C)C(=O)N[C@@H](CCC(=O)O)C(=O)N[C@@H](CCCNC(=N)N)C(=O)N[C@@H](CCCNC(=N)N)C(=O)N[C@@H](CCCCN)C(=O)N[C@@H](CCCCN)C(=O)N[C@@H](CCCNC(=N)N)C(=O)N[C@@H](CCC(=O)O)C(=O)N[C@@H](C)C(N)=O)[C@@H](C)O [HLR-sol] ({5FAM-PEG2}-L[S5]KEH[S5]LWEELRIKTAERRKKREA-NH2; staple 2-6)

- Kd RalA·GDP, FP (RalA·GDP): binding was too weak
- Kd (RalA·GDP): > 100 µM
- Kd RhoA·GMPPNP, FP (RhoA·GMPPNP): binding was too weak
- Kd (RhoA·GMPPNP): > 100 µM
- Kd Rac1·GMPPNP, FP (Rac1·GMPPNP): binding was too weak
- Kd (Rac1·GMPPNP): > 100 µM
Molecule: CC[C@H](C)[C@H](NC(=O)[C@H](CCCNC(=N)N)NC(=O)[C@H](CC(C)C)NC(=O)[C@H](CCC(=O)O)NC(=O)[C@H](CCC(=O)O)NC(=O)[C@H](Cc1c[nH]c2ccccc12)NC(=O)[C@H](CC(C)C)NC(=O)[C@]1(C)CCCC=CCCC[C@](C)(NC(=O)[C@H](CC(C)C)NC(=O)CCOCCOCCNC(=O)c2ccc3c(c2)C(=O)OC32c3ccc(O)cc3Oc3cc(O)ccc32)C(=O)N[C@@H](CCCCN)C(=O)N[C@@H](CCC(=O)O)C(=O)N[C@@H](CCC(=O)O)C(=O)N1)C(=O)N[C@@H](CCCCN)C(=O)N[C@H](C(=O)N[C@@H](C)C(=O)N[C@@H](CCC(=O)O)C(=O)N[C@@H](CCCCN)C(=O)N[C@@H](CCCNC(=N)N)C(=O)N[C@@H](CCCCN)C(=O)N[C@@H](CCCCN)C(=O)N[C@@H](CCCNC(=N)N)C(=O)N[C@@H](CCC(=O)O)C(=O)N[C@@H](C)C(N)=O)[C@@H](C)O [L-sol] ({5FAM-PEG2}-L[S5]KEE[S5]LWEELRIKTAEKRKKREA-NH2; staple 2-6)

- Kd [1]: 2.75 µM
- Kd [2]: 10.3 µM
B1: RLIP76 RBD WNASELR mutant (domain or fragment)
chain: ETQAGIKEEIRRQEFLLNSLHRDLQGGIKDLSKWNRAWEVSEILLALRRKLREA
notes: RLIP76 residues 423-446 (helix α2); Selected by CIS display; source: E. coli, recombinant; cleaved from its tag

- Kd [1]: 0.53 µM
- Kd [2]: 1.2 µM
B2: RLIP76 RBD WDASTAY mutant (domain or fragment)
chain: ETQAGIKEEIRRQEFLLNSLHRDLQGGIKDLSKWDRAWEVSTILAALYRKLREA
notes: as for B1

- Kd [3]: 1.74 µM
- Kd [4]: 2.97 µM
B3: HLR-sol stapled peptide (peptide)
chain: L[S5]KEH[S5]LWEELRIKTAERRKKREA-NH2
modifications: staple 2-6; N-terminus assumed
SMILES: CC[C@H](C)[C@H](NC(=O)[C@H](CCCNC(=N)N)NC(=O)[C@H](CC(C)C)NC(=O)[C@H](CCC(=O)O)NC(=O)[C@H](CCC(=O)O)NC(=O)[C@H](Cc1c[nH]c2ccccc12)NC(=O)[C@H](CC(C)C)NC(=O)[C@]1(C)CCCC=CCCC[C@](C)(NC(=O)[C@@H](N)CC(C)C)C(=O)N[C@@H](CCCCN)C(=O)N[C@@H](CCC(=O)O)C(=O)N[C@@H](Cc2c[nH]cn2)C(=O)N1)C(=O)N[C@@H](CCCCN)C(=O)N[C@H](C(=O)N[C@@H](C)C(=O)N[C@@H](CCC(=O)O)C(=O)N[C@@H](CCCNC(=N)N)C(=O)N[C@@H](CCCNC(=N)N)C(=O)N[C@@H](CCCCN)C(=O)N[C@@H](CCCCN)C(=O)N[C@@H](CCCNC(=N)N)C(=O)N[C@@H](CCC(=O)O)C(=O)N[C@@H](C)C(N)=O)[C@@H](C)O

- Kd [4]: 48.6 µM
B4: wt-sol stapled peptide (peptide)
chain: L[S5]KEE[S5]LWEEQRIKTAEKRKKREA-NH2
modifications: staple 2-6; N-terminus assumed
SMILES: CC[C@H](C)[C@H](NC(=O)[C@H](CCCNC(=N)N)NC(=O)[C@H](CCC(N)=O)NC(=O)[C@H](CCC(=O)O)NC(=O)[C@H](CCC(=O)O)NC(=O)[C@H](Cc1c[nH]c2ccccc12)NC(=O)[C@H](CC(C)C)NC(=O)[C@]1(C)CCCC=CCCC[C@](C)(NC(=O)[C@@H](N)CC(C)C)C(=O)N[C@@H](CCCCN)C(=O)N[C@@H](CCC(=O)O)C(=O)N[C@@H](CCC(=O)O)C(=O)N1)C(=O)N[C@@H](CCCCN)C(=O)N[C@H](C(=O)N[C@@H](C)C(=O)N[C@@H](CCC(=O)O)C(=O)N[C@@H](CCCCN)C(=O)N[C@@H](CCCNC(=N)N)C(=O)N[C@@H](CCCCN)C(=O)N[C@@H](CCCCN)C(=O)N[C@@H](CCCNC(=N)N)C(=O)N[C@@H](CCC(=O)O)C(=O)N[C@@H](C)C(N)=O)[C@@H](C)O

- Kd [5]: 4.68 µM
- Kd [6]: 0.159 µM
Molecule: 5FAM-L[S5]KEH[S5]LWEVLRILTALRRKLREA (staple 2-6)

- Kd [5]: 17.2 µM
- Kd [6]: 4.7 µM
Molecule: 5FAM-L[S5]KEE[S5]LWEVQRILTALKRKLREA (staple 2-6)
